The text below walks through data of patent US20250179073A1, “TRICYCLIC HETEROCYCLE COMPOUNDS AS IAP ANTAGONISTS” (Ascentage Pharma (Suzhou) Co., Ltd., priority 2022, published 2025).

Molecules are shown by their SMILES.

For this experiment, the system named is MDA-MB-231 cells. Kind of experiment: Cell proliferation assay (CellTiter-Glo), MDA-MB-231. It counts as cell-based. The settings on record: Homo sapiens, MDA-MB-231, 72 h, 72 h treatment, Celltiter-Glo luminescence. Here is the method:
Example 238: Cell Proliferation Assay
MDA-MB-231 and EVSA-T cells (10000 cells/well) were plated onto 96-well plates (Corning, Cat #3917) in 95 μL of medium (RPMI-1640 containing 10% FBS and MEM containing 10% FBS, respectively). Compounds with various concentrations ([…]) were added to the wells. After treatment for 72 h, 30 μL of Celltiter-Glo reagent (Promega, Cat #G7573) was added and incubated at room temperature for 15 min, then the luminescent signal was determined using a microplate reader (Biotek, SynergyH1). The inhibitor dose-response curves were analyzed using normalized IC50 regression curve fitting with control based normalization.

The IC50 is the concentration at which inhibition is half-maximal. Regarding `C[C@@H]1CN(CC(=O)N2CC(C)(C)c3c2cc(Cc2ccc(F)cc2)c2nn(CC(C)(C)O)c(=O)n32)[C@@H](CN2C[C@@H]3C[C@H]2CO3)CN1` [Compound 283, 6-(2-((2R,5R)-2-(((1S,4S)-2-oxa-5-azabicyclo[2.2.1]heptan-5-yl)methyl)-5-methylpiperazin-1-yl)acetyl)-4-(4-fluorobenzyl)-2-(2-hydroxy-2-methylpropyl)-8,8-dimethyl-2,6,7,8-tetrahydro-1H-pyrrolo[2,3-e][1,2,4]triazolo[4,3-a]pyridin-1-one], the IC50 was determined as 360 nM.
As to `C[C@@H]1CN(CC(=O)N2CC(C)(C)c3c2cc(Cc2ccc(F)cc2)c2nc(C(F)(F)F)cn32)[C@@H](CN2[C@H](C)COC[C@@H]2C)CN1` [Compound 173, 2-((2R,5R)-2-(((3S,5R)-3,5-dimethylmorpholino)methyl)-5-methylpiperazin-1-yl)-1-(4-(4-fluorobenzyl)-8,8-dimethyl-2-(trifluoromethyl)-7,8-dihydro-6H-imidazo[1,2-a]pyrrolo[2,3-e]pyridin-6-yl)ethan-1-one], the IC50 turned out to be 530 nM.
Next, `C[C@@H]1CN(CC(=O)N2CC(C)(C)c3c2cc(Cc2ccc(F)cc2)c2nc(N4CCOCC4=O)nn32)[C@@H](CN2CCOC[C@H]2C)CN1` [Compound 208, 4-(4-(4-fluorobenzyl)-8,8-dimethyl-6-(2-((2R,5R)-5-methyl-2-(((R)-3-methylmorpholino)methyl)piperazin-1-yl)acetyl)-7,8-dihydro-6H-pyrrolo[2,3-e][1,2,4]triazolo[1,5-a]pyridin-2-yl)morpholin-3-one]: 210 nM; `C[C@@H]1CN(CC(=O)N2CC(C)(C)c3c2cc(Cc2ccc(F)cc2)c2nn(Cc4ncn(C)n4)c(=O)n32)[C@@H](CN2CCOC[C@H]2C)CN1` [Compound 232, 4-(4-fluorobenzyl)-8,8-dimethyl-2-((1-methyl-1H-1,2,4-triazol-3-yl)methyl)-6-(2-((2R,5R)-5-methyl-2-(((R)-3-methylmorpholino)methyl)piperazin-1-yl)acetyl)-2,6,7,8-tetrahydro-1H-pyrrolo[2,3-e][1,2,4]triazolo[4,3-a]pyridin-1-one]: 330 nM.
With `C[C@@H]1CN(CC(=O)N2CC(C)(C)c3c2cc(Cc2ccc(F)cc2)n2cnnc32)[C@@H](CN2CCOC[C@H]2C)CN1` [Example 23, 1-(5-(4-fluorobenzyl)-9,9-dimethyl-8,9-dihydro-7H-pyrrolo[3,2-c][1,2,4]triazolo[4,3-a]pyridin-7-yl)-2-((2R,5R)-5-methyl-2-(((R)-3-methylmorpholino)methyl)piperazin-1-yl)ethan-1-one], the IC50 came out at 320 nM.
Turning to `C[C@@H]1CN(CC(=O)N2CC(C)(C)c3c2cc(Cc2ccc(F)cc2)c2nn(CC(C)(C)O)c(=O)n32)[C@@H](CN2CCC(F)(F)C[C@H]2C)CN1` [Compound 281, 6-(2-((2R,5R)-2-(((R)-4,4-difluoro-2-methylpiperidin-1-yl)methyl)-5-methylpiperazin-1-yl)acetyl)-4-(4-fluorobenzyl)-2-(2-hydroxy-2-methylpropyl)-8,8-dimethyl-2,6,7,8-tetrahydro-1H-pyrrolo[2,3-e][1,2,4]triazolo[4,3-a]pyridin-1-one], the IC50 came out at 26 nM.
In the case of `C[C@@H]1CN(CC(=O)N2CC(C)(C)c3c2cc(Cc2ccc(F)cc2)c2scnc32)[C@@H](CN2CCOC[C@H]2C)CN1` [Example 28, 1-(4-(4-fluorobenzyl)-8,8-dimethyl-7,8-dihydro-6H-thiazolo[4,5-e]indol-6-yl)-2-((2R,5R)-5-methyl-2-(((R)-3-methylmorpholino)methyl)piperazin-1-yl)ethan-1-one], the IC50 was found to be 330 nM.
As for `C[C@@H]1CN(CC(=O)N2CC(C)(C)c3c2cc(Cc2ccc(F)cc2)c2nc(C(F)(F)F)cn32)[C@@H](CN2CCOC[C@H]2CO)CN1` [Compound 160, 1-(4-(4-fluorobenzyl)-8,8-dimethyl-2-(trifluoromethyl)-7,8-dihydro-6H-imidazo[1,2-a]pyrrolo[2,3-e]pyridin-6-yl)-2-((2R,5R)-2-((3-(hydroxymethyl)morpholino)methyl)-5-methylpiperazin-1-yl)ethan-1-one], the 50% inhibitory concentration (IC50) was 330 nM.
As for `C[C@@H]1CN(CC(=O)N2CC(C)(C)c3c2cc(Cc2ccc(F)cc2)c2nn(C[C@@H]4COCCO4)c(=O)n32)[C@@H](CN2CCOC[C@H]2C)CN1` [Compound 233, 2-(((R)-1,4-dioxan-2-yl)methyl)-4-(4-fluorobenzyl)-8,8-di methyl-6-(2-((2R,5R)-5-methyl-2-(((R)-3-methylmorpholino)methyl)piperazin-1-yl)acetyl)-2,6,7,8-tetrahydro-1H-pyrrolo[2,3-e][1,2,4]triazolo[4,3-a]pyridin-1-one], the IC50 was 260 nM.
For the compound `Cc1nccn1C[C@H]1CN[C@H](C)CN1CC(=O)N1CC(C)(C)c2c1cc(Cc1ccc(F)cc1)c1nc(C(F)(F)F)cn21` [Compound 186, 1-(4-(4-fluorobenzyl)-8,8-dimethyl-2-(trifluoromethyl)-7,8-dihydro-6H-imidazo[1,2-a]pyrrolo[2,3-e]pyridin-6-yl)-2-((2R,5R)-5-methyl-2-((2-methyl-1H-imidazol-1-yl)methyl)piperazin-1-yl)ethan-1-one], the 50% inhibitory concentration (IC50) was 230 nM.
Then `C[C@@H]1CN(CC(=O)N2CC(C)(C)c3c2cc(Cc2ccc(F)cc2)c2nn(CC(C)(C)O)c(=O)n32)[C@@H](CN2CC(F)(F)C[C@H]2C)CN1` [Compound 288, 6-(2-((2R,5R)-2-(((R)-4,4-difluoro-2-methylpyrrolidin-1-yl)methyl)-5-methylpiperazin-1-yl)acetyl)-4-(4-fluorobenzyl)-2-(2-hydroxy-2-methylpropyl)-8,8-dimethyl-2,6,7,8-tetrahydro-1H-pyrrolo[2,3-e][1,2,4]triazolo[4,3-a]pyridin-1-one], with 29 nM; and `C[C@@H]1CN(CC(=O)N2CC(C)(C)c3c2cc(Sc2ccc(F)cn2)c2ncnn32)[C@@H](CN2CCOC[C@H]2C)CN1` [Compound 211, 1-(4-((5-fluoropyridin-2-yl)thio)-8,8-dimethyl-7,8-dihydro-6H-pyrrolo[2,3-e][1,2,4]triazolo[1,5-a]pyridin-6-yl)-2-((2R,5R)-5-methyl-2-(((R)-3-methylmorpholino)methyl)piperazin-1-yl)ethan-1-one], with 150 nM.
Then `C[C@@H]1CN(CC(=O)N2CC(C)(C)c3c2cc(Cc2ccc(F)cc2)c2nc(N(S(C)(=O)=O)S(C)(=O)=O)nn32)[C@@H](CN2CCOC[C@H]2C)CN1` [Example 16, N-(4-(4-fluorobenzyl)-8,8-dimethyl-6-(2-((2R,5R)-5-methyl-2-(((R)-3-methylmorpholino)methyl)piperazin-1-yl)acetyl)-7,8-dihydro-6H-pyrrolo[2,3-e][1,2,4]triazolo[1,5-a]pyridin-2-yl)-N-(methylsulfonyl)methanesulfonamide], with 6260 nM.
Consider `Cc1nc(C)c(Cc2cc3c(n4ncnc24)C(C)(C)CN3C(=O)CN2C[C@@H](C)NC[C@@H]2CN2CCOC[C@H]2C)s1` [Compound 158, 1-(4-((2,4-dimethylthiazol-5-yl)methyl)-8,8-dimethyl-7,8-dihydro-6H-pyrrolo[2,3-e][1,2,4]triazolo[1,5-a]pyridin-6-yl)-2-((2R,5R)-5-methyl-2-(((R)-3-methylmorpholino)methyl)piperazin-1-yl)ethan-1-one], for which the IC50 is 720 nM.
Regarding `C[C@@H]1CN(CC(=O)N2CC(C)(C)c3c2cc(Cc2ccc(F)cc2)c2nn(Cc4ncccn4)c(=O)n32)[C@@H](CN2CCOC[C@H]2C)CN1` [Compound 221, 4-(4-fluorobenzyl)-8,8-dimethyl-6-(2-((2R,5R)-5-methyl-2-(((R)-3-methylmorpholino)methyl)piperazin-1-yl)acetyl)-2-(pyrimidin-2-ylmethyl)-2,6,7,8-tetrahydro-1H-pyrrolo[2,3-e][1,2,4]triazolo[4,3-a]pyridin-1-one], the IC50 was found to be 190 nM.
Turning to `[2H]C([2H])([2H])NC(=O)c1nc2c(Cc3ccc(F)cc3)cc3c(n2n1)C(C)(C)CN3C(=O)CN1C[C@@H](C)NC[C@@H]1CN1CCOC[C@H]1C` [Compound 258, 4-(4-fluorobenzyl)-8,8-dimethyl-N-(methyl-d3)-6-(2-((2R,5R)-5-methyl-2-(((R)-3-methylmorpholino)methyl)piperazin-1-yl)acetyl)-7,8-dihydro-6H-pyrrolo[2,3-e][1,2,4]triazolo[1,5-a]pyridine-2-carboxamide], the IC50 was 195 nM.
`C[C@@H]1CN(CC(=O)N2CC(C)(C)c3c2cc(Cc2ccc(F)cc2)c2ncnn32)[C@@H](CN2CCC(F)(F)C[C@H]2C)CN1` [Compound 75, 2-((2R,5R)-2-(((R)-4,4-difluoro-2-methylpiperidin-1-yl)methyl)-5-methylpiperazin-1-yl)-1-(4-(4-fluorobenzyl)-8,8-dimethyl-7,8-dihydro-6H-pyrrolo[2,3-e][1,2,4]triazolo[1,5-a]pyridin-6-yl)ethan-1-one]: the IC50 was 87 nM.
Take `Cc1nc(CO)c2c(Cc3ccc(F)cc3)cc3c(n12)C(C)(C)CN3C(=O)CN1C[C@@H](C)NC[C@@H]1CN1CCOC[C@H]1C` [Compound 125, 1-(4-(4-fluorobenzyl)-3-(hydroxymethyl)-1,8,8-trimethyl-7,8-dihydro-6H-imidazo[1,5-a]pyrrolo[2,3-e]pyridin-6-yl)-2-((2R,5R)-5-methyl-2-(((R)-3-methylmorpholino)methyl)piperazin-1-yl)ethan-1-one]: the IC50 came to 200 nM.
As to `C[C@@H]1CN(CC(=O)N2CC(C)(C)c3c2cc(Cc2ccc(F)cc2)c2nn(CC(N)=O)c(=O)n32)[C@@H](CN2CCOC[C@H]2C)CN1` [Compound 217, 2-(4-(4-fluorobenzyl)-8,8-dimethyl-6-(2-((2R,5R)-5-methyl-2-(((R)-3-methylmorpholino)methyl)piperazin-1-yl)acetyl)-1-oxo-7,8-dihydro-1H-pyrrolo[2,3-e][1,2,4]triazolo[4,3-a]pyridin-2(6H)-yl)acetamide], the IC50 came to 350 nM.
